Target: T1, glucocerebrosidase (Gcase) (Homo sapiens, UniProt P04062)
T1 construct: micellar solution containing 10 nM GCase and 100 nM saposin C
T1 sequence (P04062 40-536): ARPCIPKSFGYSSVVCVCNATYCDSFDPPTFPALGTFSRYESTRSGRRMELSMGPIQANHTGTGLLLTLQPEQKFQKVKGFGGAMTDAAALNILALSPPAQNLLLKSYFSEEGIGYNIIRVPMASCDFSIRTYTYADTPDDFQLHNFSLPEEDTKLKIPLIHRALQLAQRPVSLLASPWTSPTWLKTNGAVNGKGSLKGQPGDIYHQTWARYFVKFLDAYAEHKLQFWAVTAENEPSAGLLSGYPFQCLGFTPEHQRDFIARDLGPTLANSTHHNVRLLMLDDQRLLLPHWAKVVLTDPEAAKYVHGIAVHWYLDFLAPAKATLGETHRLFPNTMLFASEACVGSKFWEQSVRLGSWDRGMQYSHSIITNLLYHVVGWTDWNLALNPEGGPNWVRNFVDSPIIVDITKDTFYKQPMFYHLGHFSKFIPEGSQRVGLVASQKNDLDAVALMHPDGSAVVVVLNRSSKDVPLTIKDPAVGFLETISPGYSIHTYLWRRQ
Assay: Glucocerebrosidase (Gcase) activation assay with 4-methylumbelliferyl-beta-D-glucopyranoside substrate, saposin C and phosphatidylserine/triton micelles, fluorescence readout
Type: biochemical
Experimental: The ability of exemplary compounds to activate glucocerebrosidase (Gcase) was measured.
A 484 μL aliquot of a 1.0 mg/mL solution of phosphatidylserine (PS) (Sigma P7769) in chloroform was evaporated under a stream of nitrogen for 1 hour. The lipid film was dissolved over 4 minutes of vigorous vortexing in 40 mL of 176 mM K2HPO4/50 mM citric acid (pH 4.7) containing 7.5 μL of triton X-100, resulting in a mixed micellar preparation with a composition of 0.32 mM triton and 0.37 mol % PS. 4-Methylumbelliferyl-beta-D-glucopyranoside (ACROS-337025000) was dissolved in the micellar solution to a final concentration of 2 mM for use as the reaction substrate.
Test compounds were diluted to the desired concentrations with dimethylsulfoxide (DMSO) from 10 mM stocks, and 0.41 μL of the DMSO compound mixture was added to 100 μL of micellar solution containing 10 nM GCase and 100 nM saposin C (Enzo ALX-201-262-C050). Pre-incubation was allowed to occur for 30 minutes at room temperature, after which the reaction was initiated by combining 25 μL of substrate solution with 25 μL of compound/GCase/saposin mixture. The reaction proceeded for 15 minutes at room temperature and was stopped by adding 150 μL of 1M glycine, pH 12.5. The endpoint of the reaction was monitored by measuring fluorescence intensity (excitation: 365 nm; emission: 440 nm) on a SpectraMax i3 instrument (Molecular Devices). Test compounds were screened at 1.0 and 0.1 μM final concentration, and subsequent 8-point dose response curves were obtained using 3-fold dilutions from a maximum final concentration of 5 μM.

| SMILES | Percent Gcase Activation, 0.1 μM Test Compound (test compound at 0.1 μM) | Percent Gcase Activation, 1 μM Test Compound (test compound at 1.0 μM) | also measured |
| --- | --- | --- | --- |
| Cc1cc(-c2ccc3ncn(C)c3c2)nc2c(C(=O)N[C@@H](C3CC3)C(F)(F)F)cnn12 [III-306] |  |  | Percent Gcase Activation, 0.1 μM Test Compound (0.1 μM test compound): *** (greater than 20% Gcase activation); Percent Gcase Activation, 1 μM Test Compound (1 μM test compound): +++ (Gcase activation greater than 60%) |
| Cc1cc(-c2cccc(Cl)n2)nc2c(C(=O)N[C@H](C)C(F)(F)F)cnn12 [III-235] | ** (Gcase activation in the range of 10% up to 20%) | +++ (Gcase activation greater than 60%) |  |
| Cc1cc(-c2cccc(C#N)n2)nc2c(C(=O)NC(C3CC3)C(F)(F)F)cnn12 (stereo not drawn) [III-133] | ** (Gcase activation in the range of 10% up to 20%) | +++ (Gcase activation greater than 60%) |  |
| Cc1cc(-c2cccc(-c3ncc[nH]3)c2)nc2c(C(=O)NC(C3CC3)C(F)(F)F)cnn12 (stereo not drawn) [III-102] | * (less than 10% Gcase activation) | + (less than 30% Gcase activation) |  |
| Cc1cc(N2CC(C(C)C)OC2=O)nc2c(C(=O)N[C@H](C3CC3)C(F)(F)F)cnn12 (stereo partly drawn) [III-317] |  |  | Percent Gcase Activation, 0.1 μM Test Compound (0.1 μM test compound): ** (Gcase activation in the range of 10% up to 20%); Percent Gcase Activation, 1 μM Test Compound (1 μM test compound): +++ (Gcase activation greater than 60%) |
| Cc1cc(-c2cccc(C#N)c2)nc2c(C(=O)NC(C3CC3)C(F)(F)F)cnn12 (stereo not drawn) [III-72] |  |  | Percent Gcase Activation, 0.1 μM Test Compound (0.1 μM test compound, Table 3A): *** (greater than 20% Gcase activation); Percent Gcase Activation, 1 μM Test Compound (1 μM test compound, Table 3A): +++ (Gcase activation greater than 60%) |
| Cc1cc(-c2cc(Cl)ccn2)nc2c(C(=O)NC(C3CC3)C(F)(F)F)cnn12 (stereo not drawn) [III-207] | *** (greater than 20% Gcase activation) | +++ (Gcase activation greater than 60%) |  |
| Cc1cc(NC2CC2)nc2c(C(=O)NC(C)C(F)(F)F)cnn12 (stereo not drawn) [III-165] | ** (Gcase activation in the range of 10% up to 20%) | +++ (Gcase activation greater than 60%) |  |
| Cc1cc(-c2cccc(-c3ncncn3)c2)nc2c(C(=O)NC(C3CC3)C(F)(F)F)cnn12 (stereo not drawn) [III-177] | *** (greater than 20% Gcase activation) | +++ (Gcase activation greater than 60%) |  |
| Cc1cc(-c2noc(C(C)C)n2)nc2c(C(=O)N[C@@H](C3CC3)C(F)(F)F)cnn12 [III-394] |  |  | Percent Gcase Activation, 0.1 μM Test Compound (0.1 μM test compound): *** (greater than 20% Gcase activation); Percent Gcase Activation, 1 μM Test Compound (1 μM test compound): +++ (Gcase activation greater than 60%) |
| Cc1cc(-c2cc(F)ccc2C#N)nc2c(C(=O)N[C@@H](C)C3CC3)cnn12 [III-396] |  |  | Percent Gcase Activation, 0.1 μM Test Compound (0.1 μM test compound): *** (greater than 20% Gcase activation); Percent Gcase Activation, 1 μM Test Compound (1 μM test compound): +++ (Gcase activation greater than 60%) |
| Cc1cc(-c2ccc(F)cc2C#N)nc2c(C(=O)N[C@@H](C)C(F)(F)F)cnn12 [III-156] | *** (greater than 20% Gcase activation) | +++ (Gcase activation greater than 60%) |  |
| Cc1cc(-c2ccc3ocnc3c2)nc2c(C(=O)N[C@H](C)C(F)(F)F)cnn12 [III-167] | *** (greater than 20% Gcase activation) | +++ (Gcase activation greater than 60%) |  |
| Cc1cc(-c2nnc(C(C)C)o2)nc2c(C(=O)N[C@@H](C3CC3)C(F)(F)F)cnn12 [III-392] |  |  | Percent Gcase Activation, 0.1 μM Test Compound (0.1 μM test compound): ** (Gcase activation in the range of 10% up to 20%); Percent Gcase Activation, 1 μM Test Compound (1 μM test compound): +++ (Gcase activation greater than 60%) |
| Cc1cc(-c2ccon2)nc2c(C(=O)N[C@H](C3CC3)C(F)(F)F)cnn12 [III-240] | *** (greater than 20% Gcase activation) | +++ (Gcase activation greater than 60%) |  |
| Cc1cc(C)n2ncc(C(=O)Nc3ccc4c(c3)OCO4)c2n1 [IV-4] |  |  | Percent Gease Activation, 0.1 μM Test Compound (0.1 μM test compound, Table 4): * (less than 10% Gcase activation); Percent Gease Activation, 1 μM Test Compound (1 μM test compound, Table 4): ++ (Gcase activation in the range of 30% up to 60%) |
| Cc1cc(-c2ccc3ocnc3c2)nc2c(C(=O)N[C@@H](C3CC3)C(F)(F)F)cnn12 [III-110] | *** (greater than 20% Gcase activation) | +++ (Gcase activation greater than 60%) |  |

| SMILES | Percent Gcase Activation, 0.1 μM Test Compound (test compound at 0.1 μM) | Percent Gcase Activation, 1 μM Test Compound (test compound at 1.0 μM) | also measured |
| --- | --- | --- | --- |
| Cc1cc(-c2nccs2)nc2c(C(=O)NC(C3CC3)C(F)(F)F)cnn12 (stereo not drawn) [III-209] | *** (greater than 20% Gcase activation) | +++ (Gcase activation greater than 60%) |  |
| Cc1cc(N2CCC(F)(F)C2)nc2c(C(=O)NC(C3CC3)C(F)(F)F)cnn12 (stereo not drawn) [III-67] |  |  | Percent Gcase Activation, 0.1 μM Test Compound (0.1 μM test compound, Table 3A): *** (greater than 20% Gcase activation); Percent Gcase Activation, 1 μM Test Compound (1 μM test compound, Table 3A): +++ (Gcase activation greater than 60%) |
| Cc1cc(-c2cncc(C(F)(F)F)c2)nc2c(C(=O)N[C@H](C)C(F)(F)F)cnn12 [III-286] |  |  | Percent Gcase Activation, 0.1 μM Test Compound (0.1 μM test compound): *** (greater than 20% Gcase activation); Percent Gcase Activation, 1 μM Test Compound (1 μM test compound): +++ (Gcase activation greater than 60%) |
| Cc1cc(C)n2ncc(C(=O)N[C@H]3CC[C@H](OCC(C)C)CC3)c2n1 [III-191] | * (less than 10% Gcase activation) | +++ (Gcase activation greater than 60%) |  |
| Cc1cccc(-c2cc(C)n3ncc(C(=O)N[C@@H](C4CC4)C(F)(F)F)c3n2)n1 [III-382] |  |  | Percent Gcase Activation, 0.1 μM Test Compound (0.1 μM test compound): *** (greater than 20% Gcase activation); Percent Gcase Activation, 1 μM Test Compound (1 μM test compound): +++ (Gcase activation greater than 60%) |
| Cc1cc(C)n2ncc(C(=O)NC(CC(C)C)C3CC3)c2n1 (stereo not drawn) [III-5] |  |  | Percent Gcase Activation, 0.1 μM Test Compound (0.1 μM test compound, Table 3A): *** (greater than 20% Gcase activation); Percent Gcase Activation, 1 μM Test Compound (1 μM test compound, Table 3A): +++ (Gcase activation greater than 60%) |
| Cc1ccc(-c2cc(C)n3ncc(C(=O)N[C@@H](C4CC4)C(F)(F)F)c3n2)c(F)n1 [III-373] |  |  | Percent Gcase Activation, 0.1 μM Test Compound (0.1 μM test compound): *** (greater than 20% Gcase activation); Percent Gcase Activation, 1 μM Test Compound (1 μM test compound): +++ (Gcase activation greater than 60%) |
| COc1cncc(-c2cc(C)n3ncc(C(=O)N[C@H](C4CC4)C(F)(F)F)c3n2)c1 [III-266] | *** (greater than 20% Gcase activation) | +++ (Gcase activation greater than 60%) |  |
| Cc1cc(-c2ccc3ocnc3c2)nc2c(C(=O)NC(C)C(F)(F)F)cnn12 (stereo not drawn) [III-169] | *** (greater than 20% Gcase activation) | +++ (Gcase activation greater than 60%) |  |
| CCc1cc(-c2ccccn2)nc2c(C(=O)NC(C)C(F)(F)F)cnn12 (stereo not drawn) [III-52] |  |  | Percent Gcase Activation, 0.1 μM Test Compound (0.1 μM test compound, Table 3A): * (less than 10% Gcase activation); Percent Gcase Activation, 1 μM Test Compound (1 μM test compound, Table 3A): +++ (Gcase activation greater than 60%) |
| Cc1ccncc1-c1cc(C)n2ncc(C(=O)NC(C)C(F)(F)F)c2n1 (stereo not drawn) [III-281] | * (less than 10% Gcase activation) | + (less than 30% Gcase activation) |  |
| COc1c(F)cccc1-c1cc(C)n2ncc(C(=O)NC(C)C(F)(F)F)c2n1 (stereo not drawn) [III-140] | ** (Gcase activation in the range of 10% up to 20%) | +++ (Gcase activation greater than 60%) |  |
| Cc1cc(-c2cccc(F)c2)nc2c(C(=O)N[C@H](C)C3CC3)cnn12 [III-92] | *** (greater than 20% Gcase activation) | +++ (Gcase activation greater than 60%) |  |
| COCOc1cccc(-c2cc(C)n3ncc(C(=O)N[C@@H](C4CC4)C(F)(F)F)c3n2)n1 [III-384] |  |  | Percent Gcase Activation, 0.1 μM Test Compound (0.1 μM test compound): ** (Gcase activation in the range of 10% up to 20%); Percent Gcase Activation, 1 μM Test Compound (1 μM test compound): +++ (Gcase activation greater than 60%) |
| Cc1cc(C)n2ncc(C(=O)NC(c3ccc(F)cc3)C(F)(F)F)c2n1 (stereo not drawn) [III-184] | *** (greater than 20% Gcase activation) | +++ (Gcase activation greater than 60%) |  |
| Cc1cc(N2CCCC(F)(F)C2)nc2c(C(=O)N[C@@H](C3CC3)C(F)(F)F)cnn12 [III-95] | *** (greater than 20% Gcase activation) | +++ (Gcase activation greater than 60%) |  |

Source: US10934298B2, “Substituted pyrazolo[1,5-a]pyrimidines for the treatment of medical disorders” (BIAL—BioTech Investments, Inc., priority 2016, dated 2021)
